Literature values, collected in article PMC9182199, “Borylated 2,3,4,5-Tetrachlorophthalimide and Their 2,3,4,5-Tetrachlorobenzamide Analogues: Synthesis, Their Glycosidase Inhibition and Anticancer Properties in View to Boron Neutron Capture Therapy” (Molecules, 2022).

Assays:
rat = test system: rat; set-up: method as in earlier work; details: oral; cited from earlier work
human [1] = details: 5 min; cited from earlier work
[2] = cited from earlier work
human [3] = details: oral; cited from earlier work
maltase = target: maltase; set-up: method as in PMID 18254235; details: cited from earlier work
yeast α-glucosidase = target: T1, yeast α-glucosidase (Saccharomyces cerevisiae, UniProt P53341); set-up: method as in PMID 18254235; details: cited from earlier work
T1 construct: purchased Sigma
T1 sequence (P53341 whole entry): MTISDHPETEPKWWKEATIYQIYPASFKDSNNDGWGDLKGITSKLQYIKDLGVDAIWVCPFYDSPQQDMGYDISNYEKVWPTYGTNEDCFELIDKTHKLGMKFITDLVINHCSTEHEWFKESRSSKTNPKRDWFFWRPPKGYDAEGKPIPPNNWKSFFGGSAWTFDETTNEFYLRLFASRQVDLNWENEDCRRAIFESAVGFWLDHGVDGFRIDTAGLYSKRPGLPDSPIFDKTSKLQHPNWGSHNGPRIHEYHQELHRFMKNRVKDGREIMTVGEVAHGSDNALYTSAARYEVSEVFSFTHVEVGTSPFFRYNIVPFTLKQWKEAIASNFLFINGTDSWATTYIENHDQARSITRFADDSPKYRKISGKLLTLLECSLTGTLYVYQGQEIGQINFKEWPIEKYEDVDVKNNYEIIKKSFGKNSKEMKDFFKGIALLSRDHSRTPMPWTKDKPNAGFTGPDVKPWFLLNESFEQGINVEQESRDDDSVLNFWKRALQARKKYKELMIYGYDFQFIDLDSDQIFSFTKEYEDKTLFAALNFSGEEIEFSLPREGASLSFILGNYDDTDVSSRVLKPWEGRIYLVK

sucrase = test system: sucrase; set-up: method as in PMID 18254235; details: cited from earlier work

**Q.** With `OB(O)c1ccccc1` [phenylboronic acid] as the compound, how does the LD50 (rat) read?
**A.** 740 mg/kg

**Q.** Which results are given for `c1ccccc1` [benzene]?
**A.** LCLO (lethal concentration) (human [1]): 20,000 ppm; Immediately Dangerous to Life and Health concentration [2]: 500 ppm; Recommended Exposure Limit [2]: 0.1 ppm; LD50 (lethal dose) (human [3]): 125 mg/kg

**Q.** With `O=C1c2ccccc2C(=O)N1c1ccc([N+](=O)[O-])cc1[N+](=O)[O-]` [N-(2,4-dinitrophenyl)phthalimide] as the compound, how does the IC50 (maltase) read?
**A.** 51 µM

**Q.** And the IC50 (yeast α-glucosidase)?
**A.** 158 µM

**Q.** What about the inhibition of sucrase (sucrase) of the same compound?
**A.** no inhibition
